Test results reported in US10238685B2, “Compositions containing polymeric sulfur and uses thereof” (Johnson & Johnson Consumer Inc., priority 2015, dated 2019).
Where two headings read alike, the source gives them in different places.

Assays:
Type in all cases: cell-based
[1] = test system: Propionibacterium acnes ATCC 6919; experiment: Antimicrobial Efficacy Test - Microcentrifuge Tube Method, P. acnes; details: for Log / cfu/ml / log reduction: 30 minute exposure
Method: (§1) For efficacy studies against Propionibacterium acnes, Staphylococcus aureus, and Escherichia coli 1% test sample suspensions [Sulfur (S) Sigma or Polymeric Sulfur (Sn) IS90 from Wuxi Wanli Chemical, China] were prepared as w/v in Butterfield's Phosphate Buffer. Serial dilutions of 1:10 were performed v/v for lower concentrations. Aliquots were then pipetted into microcentrifuge tube for exposure to test organism. Concentrations of 10% and 5% for testing against Aspergillus brasiliensis were weighed and diluted directly in microcentrifuge tubes. Each test organism was standardized to concentration of 10E6 cfu/ml. Test sample was inoculated as 1:10 (0.1 ml inoculum to 0.9 ml sample) for final concentration of 10E5 cfu/ml sample. Buffer control sample was included and used to calculate log reduction for each test sample. After inoculation, study tubes were placed at 37° C. (±2° C.), shaking at 1000 rpm for set exposure time (30 minutes, 1 hour or 3 hours). At completion of exposure time, each tube was centrifuged for 10 seconds to settle test material out of suspension. Aliquot of fluid was removed, serial diluted and plated for recovery of viable organisms. Each organism was plated on appropriate media and incubated at proper temperature and length of time before counting recoveries.

[2] = test system: IL-22-induced IL-8 cytokine release; experiment: IL-22-induced IL-8 cytokine release in normal human epidermal keratinocytes
Method: The anti-inflammatory potential of polymeric sulfur (Sn) and of regular sulfur (S) were evaluated in-vitro in human primary epidermal cell cultures. Normal human epidermal keratinocytes were purchased from Promocell (Heidelberg, Germany). The cells were plated in 24-well tissue culture treated plates at a density of 30,000 cells/well in Lonza KGM-Gold Bullet Kit without hydrocortisone (Lonza, Walkersville, Md.). After 48 hours, cells were treated with the actives described below: Polymeric form of sulfur (IS-90, Wuxi Wanli Chemical, China) and the regular form of sulfur (Sigma-Aldrich, St Louis, Mo., USA) at indicated concentrations, either in the presence or absence of the pro-inflammatory cytokine IL-22 (R&D Systems, Minneapolis, Minn.) 20 ng/ml. Following the treatment period of 24 hrs, the cell culture media supernatants were collected and analyzed for IL-8 cytokine release using MILLIPLEX®MAP kit (Millipore Corp., Billerica, Mass.).

[3] = test system: Escherichia coli ATCC 8739; experiment: Antimicrobial Efficacy Test - Microcentrifuge Tube Method, E. coli; details: for Log / cfu/ml / log reduction: 30 minute exposure
Method: as §1

[4] = test system: IL-8 cytokine release; experiment: IL-8 cytokine release in normal human epidermal keratinocytes
Method: The irritation/inflammatory/mildness potential of polymeric sulfur (Sn) and of regular sulfur (S) were evaluated in-vitro in human primary cell cultures. Normal human epidermal keratinocytes were purchased from Promocell (Heidelberg, Germany). The cells were plated in 24-well tissue culture treated plates at a density of 30,000 cells/well in Lonza KGM-Gold BulletKit without hydrocortisone (Lonza, Walkersville, Md., USA). After 48 hours, cells were treated with the actives described below: Polymeric form of sulfur (Wuxi Wanli Chemical, China) and the regular form of sulfur (Sigma-Aldrich, St Louis, Mo.) at indicated concentrations for 24 hours, following which supernatants were collected and analyzed for IL-8 and IL-1α cytokine release using MILLIPLEX®MAP kit (Millipore Corp., Billerica, Mass.).

[5] = test system: Staphylococcus aureus ATCC 6538; experiment: Antimicrobial Efficacy Test - Microcentrifuge Tube Method, S. aureus; details: for Log / cfu/ml / log reduction: 60 minute exposure
Method: as §1

[6] = test system: Aspergillus brasiliensis ATCC 16404; experiment: Antimicrobial Efficacy Test - Microcentrifuge Tube Method, A. brasiliensis; details: for Log / cfu/ml / log reduction: 3 hour exposure
Method: as §1

[7] = test system: IL-1α pro-inflammatory cytokine release; experiment: IL-1α cytokine release in human skin equivalents (EPI 200 HCF-PRF)
Method: The potential to induce the pro-inflammatory cytokine release IL1-a by either the polymeric sulfur (Sn) and of regular sulfur (S) were evaluated in human skin equivalents. Human skin equivalents (EPI 200 HCF-PRF), multilayer and differentiated epidermis consisting of normal human epidermal keratinocytes, were purchased from MatTek (Ashland, Mass.). Upon receipt, skin equivalents were incubated for 24 hours at 37° C. in maintenance medium without hydrocortisone. Equivalents were topically treated (0.1%, 1% and 10%) with either polymeric sulfur (IS-90, Wuxi Wanli Chemical, China) or regular sulfur (S, Sigma-Aldrich, St Louis, Mo., USA) in 70% ethanol/30% propylene glycol vehicle, and compared to either vehicle alone used as negative control, or to the 10 mM SDS used as positive control. Equivalents were incubated for 48 hours at 37° C. with maintenance medium then supernatants were analyzed for IL-1α pro-inflammatory cytokine release using MILLIPLEX®MAP kit (Millipore Corp., Billerica, Mass.).

Work on `S1SSSSSSS1` [S, Sulfur] yielded a Log ([1]; 0.001%) of 5.3, a cfu/ml ([1]; 0.001%) of 2.0E+05 cfu/ml and a log reduction ([1]; 0.001%) of 0.1. For the same compound, the Log ([1]; 0.01%) was 5.3, the cfu/ml ([1]; 0.01%) was 1.9E+05 cfu/ml and the log reduction ([1]; 0.01%) was 0.1. The Log ([1]; 0.1%) was 5.3, the cfu/ml ([1]; 0.1%) was 1.8E+05 cfu/ml and the log reduction ([1]; 0.1%) was 0.1. For the same compound, the Log ([1]; 1% w/v) was 5.2, the cfu/ml ([1]; 1% w/v) was 1.6E+05 cfu/ml and the log reduction ([1]; 1% w/v) was 0.2. The “antimicrobial efficacy, conclusion” value ([1]; at 0.01% or 0.001%) was “Neither form was efficacious”, the “IL-8 release vs untreated control cells in presence of IL-22 (FIG. 1)” value ([2]; 0.01% up to 3%, IL-22 20 ng/ml, 24 hrs) was “did induce significantly the stimulation of the pro-inflammatory cytokine IL-8” and the “anti-inflammatory potential in human primary epidermal cells in vitro” value ([2]; composition, measured per procedure of the Examples) was “greater than 220 pg/ml”. It also gave a Log ([3]; 0.001%) of 6.1, a cfu/ml ([3]; 0.001%) of 1.3E+06 cfu/ml and a log reduction ([3]; 0.001%) of 0.1. It also gave a Log ([3]; 0.01%) of 6.1, a cfu/ml ([3]; 0.01%) of 1.3E+06 cfu/ml and a log reduction ([3]; 0.01%) of 0.1. It also gave a Log ([3]; 0.1%) of 6.1, a cfu/ml ([3]; 0.1%) of 1.4E+06 cfu/ml and a log reduction ([3]; 0.1%) of 0.1. For the same compound, the Log ([3]; 1% w/v) was 6.2, the cfu/ml ([3]; 1% w/v) was 1.5E+06 cfu/ml and the log reduction ([3]; 1% w/v) was 0.0. For the same compound, the “antimicrobial efficacy, conclusion” value ([3]; at 0.1%, 0.01% or 0.001%) was “Neither form was efficacious”, the “stimulation of pro-inflammatory cytokine IL-8 vs untreated control cells (FIG. 3)” value ([4]; 0.01% up to 3%, 24 hours, no IL-22) was “did induce significantly the stimulation of the pro-inflammatory biomarker cytokine IL-8” and the Log ([5]; 0.001%) was 4.0. For the same compound, the cfu/ml ([5]; 0.001%) was 9.1E+03 cfu/ml, the log reduction ([5]; 0.001%) was 1.4 and the Log ([5]; 0.01%) was 4.0. The cfu/ml ([5]; 0.01%) was 1.0E+04 cfu/ml, the log reduction ([5]; 0.01%) was 1.4 and the Log ([5]; 0.1%) was 3.5. It also gave a cfu/ml ([5]; 0.1%) of 3.0E+03 cfu/ml, a log reduction ([5]; 0.1%) of 1.9 and a Log ([5]; 1% w/v) of 5.3. For the same compound, the cfu/ml ([5]; 1% w/v) was 2.1E+05 cfu/ml, the log reduction ([5]; 1% w/v) was 0.1 and the “antimicrobial efficacy, conclusion” value ([5]; at 0.1%) was “the forms were equivalent”. The Log ([6]; 0.1%) was 5.5, the cfu/ml ([6]; 0.1%) was 3.2E+05 cfu/ml and the log reduction ([6]; 0.1%) was −0.1. It also gave a Log ([6]; 1%) of 5.3, a cfu/ml ([6]; 1%) of 2.0E+05 cfu/ml and a log reduction ([6]; 1%) of 0.1. For the same compound, the Log ([6]; 5%) was 5.5, the cfu/ml ([6]; 5%) was 2.9E+05 cfu/ml and the log reduction ([6]; 5%) was −0.1. The Log ([6]; 10%) was 5.4, the cfu/ml ([6]; 10%) was 2.8E+05 cfu/ml and the log reduction ([6]; 10%) was 0.0. For the same compound, the “antimicrobial efficacy, conclusion” value ([6]; at 1% or 0.01%) was “Neither was efficacious” and the “stimulation of pro-inflammatory cytokine IL-1α (FIG. 2)” value ([7]; topical 0.1%, 1% and 10% in 70% ethanol/30% propylene glycol, 48 hours) was “did induce the stimulation of the pro-inflammatory cytokine IL-1α in a dose-dependent manner”.

In the case of Polymeric Sulfur [Sn], the “stimulation of pro-inflammatory cytokine IL-8 vs untreated control cells (FIG. 3)” value [4] is reported as “showed significantly lower stimulation of the pro-inflammatory cytokine IL-8” and the “stimulation of pro-inflammatory cytokine IL-1α (FIG. 2)” value [7] is reported as “did not induce the production of IL-1α to the same extent”.
